Test results from PubChem BioAssay (NCI).
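How tested: cells in 96-well plates exposed to compound for 48 hours at five concentrations. At the TGI there is no net growth.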

Key:
Assay in all cases: NCI-60 cell line screen, 48 h
A549 NSCLC = tested on: A549 NSCLC
CAKI-1 renal = tested on: CAKI-1 renal
CCRF-CEM leukemia = tested on: CCRF-CEM leukemia
COLO 205 colon = tested on: COLO 205 colon
DLD-1 colon = tested on: DLD-1 colon
DMS 114 small cell lung = tested on: DMS 114 small cell lung
DMS 273 small cell lung = tested on: DMS 273 small cell lung
EKVX NSCLC = tested on: EKVX NSCLC
HCC-2998 colon = tested on: HCC-2998 colon
HL-60(TB) leukemia = tested on: HL-60(TB) leukemia
HOP-92 NSCLC = tested on: HOP-92 NSCLC
HT29 colon = tested on: HT29 colon
IGROV1 ovarian = tested on: IGROV1 ovarian
K-562 leukemia = tested on: K-562 leukemia
KM12 colon = tested on: KM12 colon
LOX IMVI melanoma = tested on: LOX IMVI melanoma
LXFL 529 NSCLC = tested on: LXFL 529 NSCLC
M14 melanoma = tested on: M14 melanoma
MOLT-4 leukemia = tested on: MOLT-4 leukemia
NCI-H226 lung = tested on: NCI-H226 lung
NCI-H23 lung = tested on: NCI-H23 lung
NCI-H460 lung = tested on: NCI-H460 lung
NCI-H522 lung = tested on: NCI-H522 lung
OVCAR-3 ovarian = tested on: OVCAR-3 ovarian
OVCAR-4 ovarian = tested on: OVCAR-4 ovarian
OVCAR-8 ovarian = tested on: OVCAR-8 ovarian
RPMI-8226 leukemia = tested on: RPMI-8226 leukemia
RXF 393 renal = tested on: RXF 393 renal
SF-539 CNS = tested on: SF-539 CNS
SK-MEL-28 melanoma = tested on: SK-MEL-28 melanoma
SK-MEL-5 melanoma = tested on: SK-MEL-5 melanoma
SK-OV-3 ovarian = tested on: SK-OV-3 ovarian
SNB-19 CNS = tested on: SNB-19 CNS
SNB-75 CNS = tested on: SNB-75 CNS
SNB-78 CNS = tested on: SNB-78 CNS
SW-620 colon = tested on: SW-620 colon
TK-10 renal = tested on: TK-10 renal
U251 CNS = tested on: U251 CNS
UACC-257 melanoma = tested on: UACC-257 melanoma
UACC-62 melanoma = tested on: UACC-62 melanoma
786-0 renal = tested on: 786-0 renal
A498 renal = tested on: A498 renal
ACHN renal = tested on: ACHN renal
BT-549 breast = tested on: BT-549 breast
DU-145 prostate = tested on: DU-145 prostate
HCT-116 colon = tested on: HCT-116 colon
HCT-15 colon = tested on: HCT-15 colon
HOP-62 NSCLC = tested on: HOP-62 NSCLC
HS 578T breast = tested on: HS 578T breast
MALME-3M melanoma = tested on: MALME-3M melanoma
MCF7 breast = tested on: MCF7 breast
MDA-MB-231 breast = tested on: MDA-MB-231 breast
MDA-MB-435 = tested on: MDA-MB-435
MDA-N = tested on: MDA-N
NCI/ADR-RES ovarian = tested on: NCI/ADR-RES ovarian
OVCAR-5 ovarian = tested on: OVCAR-5 ovarian
PC-3 prostate = tested on: PC-3 prostate
SF-268 CNS = tested on: SF-268 CNS
SF-295 CNS = tested on: SF-295 CNS
SN12C renal = tested on: SN12C renal
SR leukemia = tested on: SR leukemia
T-47D breast = tested on: T-47D breast
UO-31 renal = tested on: UO-31 renal

Q: How did the TGI (A549 NSCLC) turn out when `CCSc1nc2cccc([N+](=O)[O-])c2n1CC` was run?
A: > 100 µM

Q: And the TGI (CAKI-1 renal)?
A: > 100 µM

Q: And the TGI (CCRF-CEM leukemia)?
A: > 100 µM

Q: What about the TGI (COLO 205 colon) of the same compound?
A: > 100 µM

Q: What about the TGI (DLD-1 colon) of the same compound?
A: > 100 µM

Q: And the TGI (DMS 114 small cell lung)?
A: > 100 µM

Q: What about the TGI (DMS 273 small cell lung) of the same compound?
A: > 100 µM

Q: And the TGI (EKVX NSCLC)?
A: > 100 µM

Q: What about the TGI (HCC-2998 colon) of the same compound?
A: > 100 µM

Q: What about the TGI (HL-60(TB) leukemia) of the same compound?
A: > 100 µM

Q: What about the TGI (HOP-92 NSCLC) of the same compound?
A: > 100 µM

Q: And the TGI (HT29 colon)?
A: > 100 µM

Q: And the TGI (IGROV1 ovarian)?
A: > 100 µM

Q: And the TGI (K-562 leukemia)?
A: > 100 µM

Q: What about the TGI (KM12 colon) of the same compound?
A: > 100 µM

Q: And the TGI (LOX IMVI melanoma)?
A: > 100 µM

Q: What about the TGI (LXFL 529 NSCLC) of the same compound?
A: > 100 µM

Q: And the TGI (M14 melanoma)?
A: > 100 µM

Q: What about the TGI (MOLT-4 leukemia) of the same compound?
A: > 100 µM

Q: What about the TGI (NCI-H226 lung) of the same compound?
A: > 100 µM

Q: What about the TGI (NCI-H23 lung) of the same compound?
A: > 100 µM

Q: And the TGI (NCI-H460 lung)?
A: > 100 µM

Q: What about the TGI (NCI-H522 lung) of the same compound?
A: > 100 µM

Q: And the TGI (OVCAR-3 ovarian)?
A: > 100 µM

Q: What about the TGI (OVCAR-4 ovarian) of the same compound?
A: > 100 µM

Q: What about the TGI (OVCAR-8 ovarian) of the same compound?
A: > 100 µM

Q: What about the TGI (RPMI-8226 leukemia) of the same compound?
A: > 100 µM

Q: And the TGI (RXF 393 renal)?
A: > 100 µM

Q: And the TGI (SF-539 CNS)?
A: > 100 µM

Q: What about the TGI (SK-MEL-28 melanoma) of the same compound?
A: > 100 µM

Q: What about the TGI (SK-MEL-5 melanoma) of the same compound?
A: > 100 µM

Q: What about the TGI (SK-OV-3 ovarian) of the same compound?
A: > 100 µM

Q: What about the TGI (SNB-19 CNS) of the same compound?
A: > 100 µM

Q: And the TGI (SNB-75 CNS)?
A: > 100 µM

Q: And the TGI (SNB-78 CNS)?
A: > 100 µM

Q: What about the TGI (SW-620 colon) of the same compound?
A: > 100 µM

Q: What about the TGI (TK-10 renal) of the same compound?
A: > 100 µM

Q: What about the TGI (U251 CNS) of the same compound?
A: > 100 µM

Q: And the TGI (UACC-257 melanoma)?
A: > 100 µM

Q: And the TGI (UACC-62 melanoma)?
A: > 100 µM

Q: For `CCOC(=O)c1nc2ccccc2nc1NCc1cc(OC)c(OC)c(OC)c1`, which TGI (786-0 renal) is on record?
A: > 100 µM

Q: And the TGI (A498 renal)?
A: 96.2 µM

Q: What about the TGI (A549 NSCLC) of the same compound?
A: > 100 µM

Q: What about the TGI (ACHN renal) of the same compound?
A: > 100 µM

Q: What about the TGI (BT-549 breast) of the same compound?
A: > 100 µM

Q: And the TGI (CAKI-1 renal)?
A: > 100 µM

Q: What about the TGI (CCRF-CEM leukemia) of the same compound?
A: > 100 µM

Q: What about the TGI (COLO 205 colon) of the same compound?
A: > 100 µM

Q: And the TGI (DU-145 prostate)?
A: > 100 µM

Q: And the TGI (EKVX NSCLC)?
A: > 100 µM

Q: What about the TGI (HCC-2998 colon) of the same compound?
A: > 100 µM

Q: What about the TGI (HCT-116 colon) of the same compound?
A: > 100 µM

Q: What about the TGI (HCT-15 colon) of the same compound?
A: > 100 µM

Q: And the TGI (HL-60(TB) leukemia)?
A: > 100 µM

Q: What about the TGI (HOP-62 NSCLC) of the same compound?
A: > 100 µM

Q: What about the TGI (HOP-92 NSCLC) of the same compound?
A: > 100 µM

Q: And the TGI (HS 578T breast)?
A: > 100 µM

Q: What about the TGI (HT29 colon) of the same compound?
A: > 100 µM

Q: What about the TGI (IGROV1 ovarian) of the same compound?
A: > 100 µM

Q: What about the TGI (K-562 leukemia) of the same compound?
A: > 100 µM

Q: And the TGI (KM12 colon)?
A: > 100 µM

Q: And the TGI (LOX IMVI melanoma)?
A: > 100 µM

Q: What about the TGI (MALME-3M melanoma) of the same compound?
A: > 100 µM

Q: And the TGI (MCF7 breast)?
A: > 100 µM

Q: What about the TGI (MDA-MB-231 breast) of the same compound?
A: > 100 µM

Q: What about the TGI (MDA-MB-435) of the same compound?
A: 71.8 µM

Q: What about the TGI (MDA-N) of the same compound?
A: 51.8 µM

Q: And the TGI (MOLT-4 leukemia)?
A: > 100 µM

Q: And the TGI (NCI-H226 lung)?
A: > 100 µM

Q: And the TGI (NCI-H23 lung)?
A: > 100 µM

Q: And the TGI (NCI-H460 lung)?
A: > 100 µM

Q: And the TGI (NCI-H522 lung)?
A: > 100 µM

Q: What about the TGI (NCI/ADR-RES ovarian) of the same compound?
A: 47.8 µM

Q: What about the TGI (OVCAR-3 ovarian) of the same compound?
A: > 100 µM

Q: And the TGI (OVCAR-4 ovarian)?
A: > 100 µM

Q: And the TGI (OVCAR-5 ovarian)?
A: > 100 µM

Q: What about the TGI (OVCAR-8 ovarian) of the same compound?
A: > 100 µM

Q: And the TGI (PC-3 prostate)?
A: > 100 µM

Q: And the TGI (RPMI-8226 leukemia)?
A: > 100 µM

Q: And the TGI (RXF 393 renal)?
A: > 100 µM

Q: And the TGI (SF-268 CNS)?
A: > 100 µM

Q: What about the TGI (SF-295 CNS) of the same compound?
A: > 100 µM

Q: And the TGI (SF-539 CNS)?
A: > 100 µM

Q: And the TGI (SK-MEL-28 melanoma)?
A: > 100 µM

Q: And the TGI (SK-MEL-5 melanoma)?
A: > 100 µM

Q: And the TGI (SK-OV-3 ovarian)?
A: > 100 µM

Q: And the TGI (SN12C renal)?
A: > 100 µM

Q: And the TGI (SNB-75 CNS)?
A: > 100 µM

Q: And the TGI (SR leukemia)?
A: > 100 µM

Q: And the TGI (SW-620 colon)?
A: > 100 µM

Q: And the TGI (T-47D breast)?
A: > 100 µM

Q: And the TGI (TK-10 renal)?
A: > 100 µM

Q: And the TGI (U251 CNS)?
A: > 100 µM

Q: And the TGI (UACC-257 melanoma)?
A: > 100 µM

Q: What about the TGI (UACC-62 melanoma) of the same compound?
A: > 100 µM

Q: And the TGI (UO-31 renal)?
A: > 100 µM
